Data taken from ChEMBL document CHEMBL2074294, “Differential effects of microsomal enzyme-inducing chemicals on the hepatic expression of rat organic anion transporters, OATP1 and OATP2” (Hepatology, 2001).

Target: T1, Solute carrier organic anion transporter family member 1A4 (Rattus norvegicus, UniProt O35913)
T1 sequence (O35913 whole entry): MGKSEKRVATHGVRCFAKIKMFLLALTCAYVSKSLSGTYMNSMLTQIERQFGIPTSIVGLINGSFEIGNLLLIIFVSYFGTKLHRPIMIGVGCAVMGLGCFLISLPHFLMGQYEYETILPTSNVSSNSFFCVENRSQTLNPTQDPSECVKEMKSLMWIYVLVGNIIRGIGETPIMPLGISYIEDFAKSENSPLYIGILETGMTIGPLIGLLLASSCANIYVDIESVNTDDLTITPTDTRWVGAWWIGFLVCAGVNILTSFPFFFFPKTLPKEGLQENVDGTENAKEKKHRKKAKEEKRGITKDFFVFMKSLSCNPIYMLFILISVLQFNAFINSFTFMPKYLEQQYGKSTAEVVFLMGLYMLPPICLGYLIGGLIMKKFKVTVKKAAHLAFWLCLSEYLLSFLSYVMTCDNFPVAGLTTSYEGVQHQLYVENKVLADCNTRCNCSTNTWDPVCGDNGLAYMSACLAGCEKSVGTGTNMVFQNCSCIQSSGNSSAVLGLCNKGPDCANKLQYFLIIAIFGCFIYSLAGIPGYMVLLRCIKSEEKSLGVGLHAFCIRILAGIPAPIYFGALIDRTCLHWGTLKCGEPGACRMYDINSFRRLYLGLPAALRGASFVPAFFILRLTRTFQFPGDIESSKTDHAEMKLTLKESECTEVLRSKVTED
Assay: TP_TRANSPORTER: Western blot
Assay type: functional

## Cc1ccc2cc3c(ccc4ccccc43)c3c2c1CC3 [3-METHYLCHOLANTHRENE]
  Activity: inducer [Decrease]
